Test results: patent US12071624B2, “Antisense oligonucleotide targeting ARL4C molecule, and nucleic acid drug using antisense oligonucleotide” (OSAKA UNIVERSITY, priority 2018, dated 2024)

Assays:
S2-CP8/Luc cells = test: Xenograft orthotopic transplantation model using pancreatic cancer cells; assay type: in vivo, mouse; conditions: twice a week from 3 days after transplantation, 28 days after transplantation
Procedure: Assay based on the xenograft orthotopic transplantation model using pancreatic cancer cells was performed by arranging the method described in the literature (Kim M P. et. al., Nat Protoc 2009; 4: 1670-80). Specifically, S2-CP8/Luc cells (5×10^5 cells) were suspended in 100 μl of Hanks' Balanced Salt Solution (HBSS) containing 50% matrigel, and were orthotopically transplanted in the central part of the pancreas using a 27 G needle. Three days after transplantation, the mice were divided into two groups, a control ASO-administered group (n=6) and an ARL4C ASO-administered group (n=7). […] Tumors were quantified once a week using the IVIS imaging system (Xenogen Corp.). In the in-vivo imaging, 100 μl of VivoGlo luciferin (30 mg/ml) was intraperitoneally administered, and bioluminescence images were recorded eight minutes after the administration. The quantification of the tumors was carried out in the following manner: a region of interest (ROI) was selected, and a radiance value of the same was measured using Living Image 4.3.1 Software (Caliper Life Science). The mice were euthanized 28 days after the transplantation, tumor weights and the number of mesenteric lymph nodes (lymph nodes of 1 mm or larger in diameter) were determined, and histological analysis was carried out. […]

ARL4C mRNA = ARL4C mRNA amount by real-time PCR in HCT116 cells; assay type: cell-based, human; conditions: HCT116 cells transfected at 25 nM
Procedure: HLE cells, HCT116 cells, and A549 cells were transfected with 25 to 50 nM ASO and 10 to 20 nM siRNA using Lipofectamine 3000 (Invitrogen, Carlsbad, CA, USA) or RNAiMAX (Invitrogen). Transfected cells were used in the experiments 36 to 48 hours after the end of the transfection.
Cell migration assays and quantitative real-time PCR analyses were performed according to the methods reported by Fujii S et al. (Oncogene 2015; 34: 4834-44).
HLE cells and HCT116 cells were transfected with the above-described seven types of ARL4C ASOs and the control ASO at 25 nM, and the ARL4C mRNA amounts were measured by real-time PCR; the results thereof are shown in (a) of FIG. 4. […] In order to optimize the effect of these three types of ARL4C ASOs, four bases were added to each of these three types of ARL4C ASOs, whereby ASO-1312, ASO-1450, and ASO-3223 each of which consisted of 19 bases were produced. With these six types of ARL4C ASOs (ASO-1316, ASO-1312, ASO-1454, ASO-1450, ASO-3225, and ASO-3223), the knockdown effect on ARL4C was further studied.

ASO-1316: 15-mer AmNA/phosphorothioate ASO targeting ARL4C, base sequence SEQ ID NO: 1 gcatacctcaggtaa; Table 1 SEQ ID NO 13 (antisense GCATACCTCAGGTAA; AmNA and phosphorothioate modified, pattern not given here)
cancer metastasis to mesenteric lymph nodes (S2-CP8/Luc cells): could suppress cancer metastasis to mesenteric lymph nodes | ARL4C mRNA amount (ARL4C mRNA): reduced the ARL4C mRNA amount
